Tests used:
Assay in all cases: AUC of viability dose-response curve (% viability x log10 dose units); higher = less sensitive
Settings in all cases: 48 h
NOMO1 = tested on: NOMO1
Summary of the method: (§1)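 Library compounds in DMSO were applied for 48 h at 37°C at 11 threefold doses (47 μM to 0.79 nM) to medium-adapted leukemia cells in 1536-well plates holding 500 or 1000 cells/well. Luminescence from CellTiter-Glo One was normalised plate by plate against DMSO and cell-free wells. Area under the curve came from trapezoidal integration of a log-logistic fit, after scaling curves that rose above full viability and discarding those that failed quality control. The fit had four parameters and used log10 doses.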

P12-Ichikawa = tested on: P12-Ichikawa
Summary of the method: as §1

SEM cells = tested on: SEM cells
Summary of the method: as §1

[1] = RPMI 5 mM glucose + 10% dialyzed FBS

SMILES | AUC of viability dose-response curve (NOMO1; HPLM + 10% dialyzed FBS) | AUC of viability dose-response curve (NOMO1; RPMI 5 mM glucose + 10% FBS) | AUC of viability dose-response curve (NOMO1; [1]) | AUC of viability dose-response curve (P12-Ichikawa; HPLM + 10% dialyzed FBS) | AUC of viability dose-response curve (P12-Ichikawa; RPMI 5 mM glucose + 10% FBS) | AUC of viability dose-response curve (P12-Ichikawa; [1]) | AUC of viability dose-response curve (SEM cells; HPLM + 10% dialyzed FBS) | AUC of viability dose-response curve (SEM cells; RPMI 5 mM glucose + 10% FBS) | AUC of viability dose-response curve (SEM cells; [1])
CN1\N=N/C2=C(N=C[N]2C1=O)C(N)=O | 445 | 458 | 450 | 466 | 466 | 452 | 331 | 318 | 306
COc1cccc(Nc2c(C(N)=O)cnc3c(C)cc([S+](=O)([O-])c4cccc(C(=O)N(C)C)c4)cc23)c1 | 465 | 472 | 469 | 470 | 472 | 469 | 459 | 466 | 468
O=[S+]([O-])(/N=C/c1c(O)ccc2ccccc12)c1cccs1 | 443 | 472 | 455 | 464 | 465 | 468 | 442 | 428 | 440
NC(=O)c1cnc(-c2ccc(C3(N)CCC3)cc2)c(-c2ccccc2)c1 | 428 | 468 | 460 | 428 | 448 | 432 | 400 | 396 | 394
Clc1ccccc1C(c1ccccc1)(c1ccccc1)n1cccn1 | 454 | 445 | 457 | 470 | 462 | 470 | 467 | 456 | 425

From the supplement of paper PMC11451515
